Experimental data published in patent publication US6590083B1, “Ketolide antibacterials” (Ortho-McNeil Pharmaceutical, Inc., priority 1999, dated 2003).
Converted amounts (≈) assume the structure as drawn.

Legend:
Assay in all cases: In vitro susceptibility testing, MIC by NCCLS broth microdilution
H. influenzae OC4883 = assay type: cell-based, Haemophilus influenzae; details: Haemophilus test media, 35° C.
Method: (§1) Minimum inhibitory concentrations (“MICs”) were determined by the NCCLS broth microdilution procedure for susceptibility testing for bacteria that grow aerobically (National Committee for Clinical Laboratory Standards, 1997. Methods for dilution antimicrobial Susceptibility tests for bacteria that grow aerobically, 4th ed. Approved standard. NCCLS Document M7-A4. National Committee for Clinical Laboratory Standards, Villanova, Pa.). stock solutions were prepared on the day of the test and appropriate aliquots were added to cation adjusted Mueller-Hinton broth (CAMHB) or Haemophilus test media. Two-fold serial dilutions were prepared and added to wells in microtiter plates. Final test concentrations ranged from 16 to 0.015 μg/ml. Broth cultures of bacteria inoculated from growth on overnight plates for all test bacteria except Streptococcus pneumoniae and Haemophilus influenzae were incubated at 35° C. and then adjusted to the Kirby Bauer standard and diluted in CAMHB to achieve a final inoculum concentration of approximately 5×10^5 CFU/ml. Inocula for S. pneumoniae and H. influenzae were prepared by directly suspending colonies from an overnight plate, adjusting the turbidity and diluting as above. S. pneumoniae media was supplemented with 2.5% lysed horse blood. […]

S. aureus ATCC29213 = assay type: cell-based; details: CAMHB, 35° C., 16-20 h
Method: (§2) Minimum inhibitory concentrations (“MICs”) were determined by the NCCLS broth microdilution procedure for susceptibility testing for bacteria that grow aerobically (National Committee for Clinical Laboratory Standards, 1997. Methods for dilution antimicrobial Susceptibility tests for bacteria that grow aerobically, 4th ed. Approved standard. NCCLS Document M7-A4. National Committee for Clinical Laboratory Standards, Villanova, Pa.). stock solutions were prepared on the day of the test and appropriate aliquots were added to cation adjusted Mueller-Hinton broth (CAMHB) or Haemophilus test media. Two-fold serial dilutions were prepared and added to wells in microtiter plates. Final test concentrations ranged from 16 to 0.015 μg/ml. Broth cultures of bacteria inoculated from growth on overnight plates for all test bacteria except Streptococcus pneumoniae and Haemophilus influenzae were incubated at 35° C. and then adjusted to the Kirby Bauer standard and diluted in CAMHB to achieve a final inoculum concentration of approximately 5×10^5 CFU/ml. Inocula for S. pneumoniae and H. influenzae were prepared by directly suspending colonies from an overnight plate, adjusting the turbidity and diluting as above. S. pneumoniae media was supplemented with 2.5% lysed horse blood. All plates were incubated in ambient air at 35° C. for […] for S. peteumoniae and Haemophilus influenzae and 16-20 h for all other bacteria.

E. coli OC2605 = assay type: cell-based; details: CAMHB, 35° C., 16-20 h
Method: as §2

E. faecalis ATCC29212 = assay type: cell-based; details: CAMHB, 35° C., 16-20 h
Method: as §2

S. pneumoniae ATCC49619 = assay type: cell-based, Streptococcus pneumoniae; details: media with 2.5% lysed horse blood, 35° C.
Method: as §1

MIC (H. influenzae OC4883; Haemophilus influenzae, OC4883, Table 3, Table 2 compounds): 1 µg/mL (≈ 1.36 µM)
In Vitro Susceptibility (MIC) H. influenzae OC4883 (H. influenzae OC4883; Table 4, Formula III compounds): 1 µg/mL
MIC (S. aureus ATCC29213; Staphylococcus aureus, ATCC29213, Table 3, Table 2 compounds): 0.5 µg/mL (≈ 0.681 µM)
In Vitro Susceptibility (MIC) S. aureus ATCC29213 (S. aureus ATCC29213; Table 4, Formula III compounds): 0.5 µg/mL
MIC (E. coli OC2605; Escherichia coli, OC2605, Table 3, Table 2 compounds): > 16 µg/mL
In Vitro Susceptibility (MIC) E. coli OC2605 (E. coli OC2605; Table 4, Formula III compounds): >16 µg/mL
MIC (E. faecalis ATCC29212; Enterococcus faecalis, ATCC29212, Table 3, Table 2 compounds): 1 µg/mL (≈ 1.36 µM)
In Vitro Susceptibility (MIC) E. faecalis ATCC29212 (E. faecalis ATCC29212; Table 4, Formula III compounds): 1 µg/mL
MIC (S. pneumoniae ATCC49619; Streptococcus pneumoniae, ATCC49619, Table 3, Table 2 compounds): 0.06 µg/mL (≈ 0.0818 µM)
In Vitro Susceptibility (MIC) S. pneumoniae ATCC49619 (S. pneumoniae ATCC49619; Table 4, Formula III compounds): 0.06 µg/mL
Compound: CC[C@H]1OC(=O)[C@H](C)[C@@H](O[C@H]2C[C@@](C)(OC)[C@@H](O)[C@H](C)O2)[C@H](C)[C@@H](O[C@@H]2O[C@H](C)C[C@H](N(C)C)[C@H]2O)[C@](C)(O)C[C@@H](C)C(=O)[C@H](C)[C@@H](O)[C@]1(C)O [Erythromycin]
